# Measured values taken from patent EP4678634A1, “ANDROGEN RECEPTOR MODULATORS AND USES THEREOF” (Haihe Biopharma Co., Ltd., priority 2023, dated 2024).
# Biological target: T1, Androgen receptor (AR) (Homo sapiens, UniProt P10275)
# T1 construct: expressed in transfected cells; host or cells: HEK293T (AR+ARE/Luc)
# T1 sequence (P10275 1-920): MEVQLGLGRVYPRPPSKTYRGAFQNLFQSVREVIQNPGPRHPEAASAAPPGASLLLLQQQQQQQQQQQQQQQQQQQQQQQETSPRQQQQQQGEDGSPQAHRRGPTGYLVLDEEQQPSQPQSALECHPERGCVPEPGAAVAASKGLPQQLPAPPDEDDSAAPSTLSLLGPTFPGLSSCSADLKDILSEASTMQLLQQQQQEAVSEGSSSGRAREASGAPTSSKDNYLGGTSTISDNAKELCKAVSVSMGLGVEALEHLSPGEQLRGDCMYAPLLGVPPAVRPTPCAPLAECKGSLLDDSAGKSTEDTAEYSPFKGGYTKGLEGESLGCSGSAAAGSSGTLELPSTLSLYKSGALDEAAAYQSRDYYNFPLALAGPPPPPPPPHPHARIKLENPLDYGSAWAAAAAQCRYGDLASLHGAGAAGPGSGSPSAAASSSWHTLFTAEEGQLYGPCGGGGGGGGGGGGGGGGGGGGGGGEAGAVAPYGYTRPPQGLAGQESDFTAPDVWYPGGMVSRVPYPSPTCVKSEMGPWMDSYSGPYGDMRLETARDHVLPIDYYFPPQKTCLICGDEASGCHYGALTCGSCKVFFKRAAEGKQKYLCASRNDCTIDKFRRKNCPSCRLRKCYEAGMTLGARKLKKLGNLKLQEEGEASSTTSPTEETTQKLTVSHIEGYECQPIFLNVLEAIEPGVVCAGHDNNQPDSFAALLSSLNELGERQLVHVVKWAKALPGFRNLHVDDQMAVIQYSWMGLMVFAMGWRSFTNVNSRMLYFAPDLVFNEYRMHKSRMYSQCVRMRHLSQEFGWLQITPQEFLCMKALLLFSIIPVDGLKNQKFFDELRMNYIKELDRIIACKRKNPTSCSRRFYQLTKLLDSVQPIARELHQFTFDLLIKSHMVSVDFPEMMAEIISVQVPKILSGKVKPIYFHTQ
# Assay: Androgen receptor (AR) reporter gene assay (luciferase)
# Type: cell-based
# Conditions: AR+ARE/Luc HEK293T cells, stimulated with 11-KDHT, 24h incubation, Bright-Lite luminescence; read-out: HEK293 Luc IC50
# Experimental: Androgen receptor (AR) reporter gene assay
# Experimental reagents: 11-Ketodihydrotestosterone (11-KDHT) was purchased from MCE (cat.HY-135794); Enzalutamide (MDV3100) was purchased from Selleck (cat.S1250); Bright-Lite Luciferase Assay kit was purchased from Vazyme (cat.DD1204-01);
# • 1. dissolve the described compounds in 100% DMSO at a final concentration of 10 mM. 100 nL each of 400X compound to be tested and 400X 11-KDHT (40 nM) were added to a 384-well assay plate with Echo, followed by 20 µL of complete medium, and centrifuged at 1000 rpm for 1 min, and oscillated for 20-30 min at room temperature. • 2. 20 µL of AR+ARE/Luc HEK293T cells (10,000 cells/well) were inoculated into the assay plate containing the compounds and 11-KDHT, and centrifuged at 1000 rpm for 1 min. The assay plate was incubated in a 37 °C CO2 incubator for 24h. • 3. 40 µL of Bright-Lite assay reagent was transferred to each well of the assay plate, centrifuged at 1000 rpm for 1 min, and shaken for 2 min at room temperature protected from light. Luminescence values (RLU) were measured using Envision. Based on the results, the IC50 values of the compounds described were calculated. Table 1 HEK293-Luc% inhibition IC50 of representative compounds
row,Compound,IC50
1,N#Cc1cc2c(c(Cl)c1OCCC(F)(F)F)CCCC2c1cnc2[nH]ncc2c1 (stereo not drawn) [HANT-171],1000 to 2000 nM
2,"CNC(=O)c1cc2c(c(Cl)c1OCCCl)CCCC2c1cnc2[nH]ncc2c1 (stereo not drawn) [HANT-183, 4-chloro-3-(2-chloroethoxy)-N-methyl-8-(1H-pyrazolo[3,4-b]pyridin-5-yl)-5,6,7,8-tetrahydrona phthalene-2-carboxamide]",1000 to 2000 nM
3,NCc1cc2c(c(Cl)c1OCCCl)CCCC2c1cnc2[nH]ncc2c1 (stereo not drawn) [HANT-184],500 to 1000 nM
4,"N#Cc1cc2c(c(Cl)c1OCCCl)CCCC2c1cccc2[nH]ncc12 (stereo not drawn) [HANT-193, 4-chloro-3-(2-chloroethoxy)-8-(1H-indazol-7-yl)-5,6,7,8-tetrahydronaphthalene-2-cyanide]",1 to 500 nM
5,N#Cc1cc2c(c(Cl)c1OCCCl)CCCC2c1cccc2cn[nH]c12 (stereo not drawn) [HANT-194],1 to 500 nM
6,"CCCOc1c(C#N)cc2c(c1Cl)CCCC2c1cnc2[nH]ncc2c1 (stereo not drawn) [HANT-196, 4-chloro-3-propoxy-8-(1H-pyrazolo[3,4-b]pyridin-5-yl)-5,6,7,8-tetrahydronaphthalene-2-carbo nitrile]",1 to 500 nM
7,N#Cc1cc2c(c(Cl)c1OCCCl)CCCC2c1cn[nH]c1 (stereo not drawn) [HANT-200],500 to 1000 nM
8,N#Cc1cc2c(c(Cl)c1OCCCl)CCCC2c1cnc2[nH]c(=O)ccc2c1 (stereo not drawn) [HANT-202],1 to 500 nM
9,N#Cc1cc2c(c(Cl)c1OCCCl)CCCC2c1ccc(N)nc1 (stereo not drawn) [HANT-203],1 to 500 nM
10,N#Cc1cc2c(c(Cl)c1OCCCl)CCC[C@@H]2c1cnc(N)nc1 [HANT-204A],> 2000 nM
11,N#Cc1cc2c(c(Cl)c1OCCCl)CCC[C@H]2c1cnc(N)nc1 [HANT-204B],1 to 500 nM
12,CC(=O)Nc1ccc(C2CCCc3c2cc(C#N)c(OCCCl)c3Cl)cn1 (stereo not drawn) [HANT-205],1 to 500 nM
13,"CNC(=O)Oc1ccc(C2CCCc3c2cc(C#N)c(OCCCl)c3Cl)cc1 (stereo not drawn) [HANT-206, 4-(5-chloro-6-(2-chloroethoxy)-7-cyano-1,2,3,4-tetrahydronaphthalen-1-yl)phenyl methylcarbamate]",1 to 500 nM
14,"N#Cc1cc2c(c(Cl)c1OCCCl)CCCC2c1cnc2[nH]c(=O)oc2c1 (stereo not drawn) [HANT-207, 4-chloro-3-(2-chloroethoxy)-8-(2-oxo-2,3-dihydrooxazolo[4,5-b]pyridin-6-yl)-5,6,7,8-tetrahydr onaphthalene-2-carbonitrile]",500 to 1000 nM
15,N#Cc1cc2c(c(Cl)c1OCCCl)CCCC2c1ccc2oc(=O)[nH]c2c1 (stereo not drawn) [HANT-208],1 to 500 nM
16,N#Cc1cc2c(c(Cl)c1OCCCl)CCCC2NC(=O)C1CCCCC1 (stereo not drawn) [HANT-209],500 to 1000 nM
17,"N#Cc1cc2c(c(Cl)c1OCCCl)CCCC2c1cnc2[nH]nc(-c3ccncc3)c2c1 (stereo not drawn) [HANT-218, 4-chloro-3-(2-chloroethoxy)-8-(3-(pyridin-4-yl)-1H-pyrazolo[3,4-b]pyridin-5-yl)-5,6,7,8-tetrah ydronaphthalene-2-carbonitrile]",1 to 500 nM
18,"N#Cc1cc2c(c(Cl)c1OCCCl)CCCC2c1cnc2[nH]nc(C3CCOCC3)c2c1 (stereo not drawn) [HANT-220, 4-chloro-3-(2-chloroethoxy)-8-(3-(tetrahydro-2H-pyran-4-yl)-1H-pyrazolo[3,4-b]pyridin-5-yl)-5,6,7,8-tetrahydronaphthalene-2-cyanide]",> 2000 nM
19,N#Cc1cc2c(c(Cl)c1OCCCl)CCCC2Nc1ccccc1 (stereo not drawn) [HANT-226],1 to 500 nM
20,N#Cc1cc2c(c(Cl)c1OCCCl)CCCC2Nc1cccnc1 (stereo not drawn) [HANT-227],1 to 500 nM
21,COc1ccc(NC2CCCc3c2cc(C#N)c(OCCCl)c3Cl)cn1 (stereo not drawn) [HANT-241],1 to 500 nM
22,N#Cc1cc2c(c(Cl)c1OCCCl)CCCC2c1cncnc1 (stereo not drawn) [HANT-246],1 to 500 nM
23,"CNc1ncc(C2CCCc3c2cc(C#N)c(OCCCl)c3Cl)cn1 (stereo not drawn) [HANT-247, 4-chloro-3-(2-chloroethoxy)-8-(2-(methylamino)pyrimidin-5-yl)-5,6,7,8-tetrahydronaphthalene-2-carbonitrile]",1 to 500 nM
24,"N#Cc1cc2c(c(Cl)c1OCCCl)CCCC2c1cnc(NCCO)nc1 (stereo not drawn) [HANT-248, 4-chloro-3-(2-chloroethoxy)-8-(2-((2-hydroxyethyl)amino)pyrimidin-5-yl)-5,6,7,8-tetrahydrona phthalene-2-carbonitrile]",1 to 500 nM
25,N#Cc1cc2c(c(Cl)c1OCCCl)CCCC2c1cnc(N)cn1 (stereo not drawn) [HANT-249],500 to 1000 nM
26,N#Cc1cc2c(c(Cl)c1OCCCl)CCCC2Nc1cncnc1 (stereo not drawn) [HANT-250],1 to 500 nM
27,N#Cc1cc2c(c(Cl)c1OCCCl)CCCC2Nc1cnc(N)nc1 (stereo not drawn) [HANT-251],1 to 500 nM

# More lines, now with the values ahead:
row,IC50,Compound
1,1 to 500 nM,N#Cc1cc2c(c(Cl)c1OCCCl)CCCC2Nc1cccc2[nH]ncc12 (stereo not drawn) [HANT-173]
2,1000 to 2000 nM,N#Cc1cc2c(c(Cl)c1OCCCl)CCCC2Nc1cc[nH]n1 (stereo not drawn) [HANT-175]
3,1 to 500 nM,N#Cc1cc2c(c(Cl)c1OCCCl)CCCC2NC(=O)c1ccc2[nH]ncc2c1 (stereo not drawn) [HANT-186]
4,1 to 500 nM,N#Cc1cc2c(c(Cl)c1OCCCl)CCCC2NC(=O)c1cn[nH]c1 (stereo not drawn) [HANT-187]
5,500 to 1000 nM,N#Cc1cc2c(c(Cl)c1OCCCl)CCCC2NC(=O)c1cc[nH]n1 (stereo not drawn) [HANT-188]
6,1 to 500 nM,"N#Cc1cc2c(c(Cl)c1OCCCl)CCCC2Nc1ccc2[nH]ncc2n1 (stereo not drawn) [HANT-191, 8-((1H-pyrazolo[4,3-b]pyridin-5-yl)amino)-4-chloro-3-(2-chloroethoxy)-5,6,7,8-tetrahydronaph thalene-2-carbonitrile]"
7,1 to 500 nM,N#Cc1cc2c(c(Cl)c1OCCCl)CCCC2NC(=O)c1ccccc1 (stereo not drawn) [HANT-212]
8,1000 to 2000 nM,N#Cc1cc2c(c(Cl)c1OCCCl)CCCC2NC(=O)c1cccnc1 (stereo not drawn) [HANT-213]
9,500 to 1000 nM,N#Cc1cc2c(c(Cl)c1OCCCl)CCCC2NC(=O)c1ccncc1 (stereo not drawn) [HANT-214]
10,1 to 500 nM,N#Cc1cc2c(c(Cl)c1OCCCl)CCCC2NC(=O)c1ccccn1 (stereo not drawn) [HANT-215]
11,1 to 500 nM,N#Cc1cc2c(c(Cl)c1OCCCl)CCCC2Nc1cc2cn[nH]c2cn1 (stereo not drawn) [HANT-224]
12,1 to 500 nM,"N#Cc1cc2c(c(Cl)c1OCCCl)CCCC2Nc1ccc2[nH]ncc2c1 (stereo not drawn) [HANT-225, 8-((1H-indazol-5-yl)amino)-4-chloro-3-(2-chloroethoxy)-5,6,7,8-tetrahydronaphthalene-2-carb onitrile]"
13,> 2000 nM,N#Cc1cc2c(c(Cl)c1OCCCl)CCCC2Nc1ccncc1 (stereo not drawn) [HANT-228]
14,1 to 500 nM,"N#Cc1cc2c(c(Cl)c1OCCCl)CCCC2Nc1ccc2cn[nH]c2c1 (stereo not drawn) [HANT-229, 8-((1H-indazol-6-yl)amino)-4-chloro-3-(2-chloroethoxy)-5,6,7,8-tetrahydronaphthalene-2-carb onitrile]"
15,1 to 500 nM,N#Cc1cc2c(c(Cl)c1OCCCl)CCCC2NC(=O)c1ccc(Cl)cc1 (stereo not drawn) [HANT-232]
16,1 to 500 nM,N#Cc1cc2c(c(Cl)c1OCCCl)CCCC2NC(=O)c1cccc(Cl)c1 (stereo not drawn) [HANT-233]
17,1 to 500 nM,N#Cc1ccc(C(=O)NC2CCCc3c2cc(C#N)c(OCCCl)c3Cl)cc1 (stereo not drawn) [HANT-234]
18,500 to 1000 nM,COc1ccc(C(=O)NC2CCCc3c2cc(C#N)c(OCCCl)c3Cl)cc1 (stereo not drawn) [HANT-235]
19,500 to 1000 nM,"N#Cc1cc2c(c(Cl)c1OCCCl)CCCC2Nc1cn[nH]c1 (stereo not drawn) [HANT-239, 8-((1H-pyrazol-4-yl)amino)-4-chloro-3-(2-chloroethoxy)-5,6,7,8-tetrahydronaphthalene-2-carb onitrile]"
20,500 to 1000 nM,"N#Cc1cc2c(c(Cl)c1OCCCl)CCCC2Nc1ccc(N)nc1 (stereo not drawn) [HANT-240, 8-((6-aminopyridin-3-yl)amino)-4-chloro-3-(2-chloroethoxy)-5,6,7,8-tetrahydronaphthalene-2-c arbonitrile]"
21,1 to 500 nM,N#Cc1cc2c(c(Cl)c1OCCCl)CCCC2Nc1ccccn1 (stereo not drawn) [HANT-252]
